Among the data in the SangsterLogP compilation are logP values, retold here.

One may read the logP as a log measure of how a compound divides between an organic and an aqueous phase. A low value points to a more hydrophilic compound.

Structures are written as SMILES.

The series can be described thus: method code SF, from DOI: 10.1016/0378-5173(89)90136-1.
`O=C(OCCO)c1ccccc1` had a logP of 1.12.
Then `O=C(OCCOCCOCCO)c1ccccc1`, with 1.09; and `O=C(NCc1ccccc1O)c1ccccc1`, with 2.55.
Then `COCCOC(=O)c1ccccc1`, with 1.78; and `CCNC(=O)[C@@H](NC(=O)CNC(=O)c1ccccc1)C(C)C`, with 1.05.
In the case of `O=C(OCCNC(=O)C(F)(F)F)c1ccccc1` it was 2.25.
`O=[N+]([O-])c1ccc(OCCN2CCOCC2)cc1` displayed a logP of 1.54.
In the case of `CCCCCCNC(=S)NC` it was 2.31.
Then `O=C(OC1C2C=CC1C=C2)c1ccccc1` (stereo not given), with 3.03; and `CCNC(=O)CNC(=O)c1ccccc1`, with 0.58.
